Test system: T1, OsPMI2 (GST-OsPMI2)
T1 construct: full CDS, N-terminal GST tag kept, E. coli Rosetta (DE3) pLysS; denatured from inclusion bodies and recovered
Assay: PGI/G6PDH-coupled assay, NADP reduction at […] nm, Lineweaver-Burk
Type: biochemical, Oryza sativa subsp. japonica
Conditions: 50 mM Tris-HCl pH 7.5, 30 °C; M-6-P to F-6-P; enzyme recovered from denatured inclusion bodies

Km: 6.462 ± 0.0479 mM
SMILES: O=P(O)(O)OC[C@H]1OC(O)[C@@H](O)[C@@H](O)[C@@H]1O (stereo partly shown) [mannose-6-phosphate]

From publication PMC4865823, “Plant phosphomannose isomerase as a selectable marker for rice transformation” (Scientific Reports, 2016)
